Results reported in patent US20020026052A1, “3-cyanoquinolines, 3-cyano-1,6-naphthyridines, and 3-cyano-1,7-naphthyridines as protein kinase inhibitors” (American Home Products Corporation, priority 2000, published 2002).
Where “and” joins values, the source holds several entries; their conditions need not be identical. Equal entries are not always repeated.

How the values were obtained:
[1] = test system: Human adenocarcinoma cell line LoVo; assay: Cell Based Screen for Inhibitors of Raf Kinase, LoVo; conditions: four days incubation, SRB
Procedure: (§1) Cell Based Screen for Inhibitors of Raf Kinase.
(§2) Cell Lines: Human adenocarcinoma cell line LoVo which is known to be growth inhibited by low nM concentrations of a reference standard inhibitor of Ras and human adenocarcinoma cell line CaCo-2, which is known to be growth resistant to the same reference compound. Cell Media: RPMI 1640 with 10% Fetal Bovine Serum supplemented with L-glutamine and Pennicilin/Streptomycin. Compounds: Supplied usually as a 10 mM stock in 100% DMSO. Normal Saline: 150 mM NaCl Trichloroacetic Acid (TCA): 50% (w/v) in water Sulforhodamine B (SRB): 0.4% (w/v) in 1% Acetic Acid Tris Base: 10 mM in water
(§3) Cells are plated at 2000 cells per well for cell line LoVo and 1500 cells for cell line CaCo-2 in 96 well plates. Cells are plated in media (200 μl) and allowed to adhere overnight at 37 ° C. At 24 hours post plating, compounds are added directly at a volume of 0.5 μl. For the qualitative screen (compounds screened at 25 μM) compound is added directly to cells. For the quantitative screen, compound is first diluted in DMSO to generate concentrations of compound or reference standard of: 1, 5, 10 and 25 μM. It is advisable to make the dilutions in an identical 96 well plate so that compounds may be added using a multichannel micropipettor set at 0.5 μl. The cells are then incubated for four days after which the media is removed using a 12 well manifold by first tipping the plate forward at a 45 degree angle and then inserting the manifold in an upright orientation to prevent the ti
(§4) of the manifold from disturbing cells at the bottom of the plate. 200 μl of normal saline is then added to each well using an 8 well multichannel pipettor, followed by the careful addition of 50 μl of 50% TCA. The plates are then incubated for 2 hours at 4 ° C, after which the supernatant is removed using the same technique as above and the plated washed twice with 200 ul water. The plates are then air dried and 50 μl of SRB stock solution is carefully added so that the entire bottom of each well is covered. This again may be used using an 8 well multichannel pipettor. The SRB is incubated with fixed cells for 15 minutes at room temperature after which the SRB is removed with the manifold as described above and the plates washed twice with 350 μl of 1% acetic acid per well each time.The plates are then air dried after which the bound SRB is released from protein by the addition of 200 µl of Tris base. Resolubilizing the SRB is aided by placing the plates on a rotator for 15-30 minutes. The absorbance of each well is determined at 550 or 562 nm using a microtiter plate reader.
(§5) Each compound or dilution thereof is performed in triplicate. Outliers are identified by visual inspection of the data. Each plate should have a “0” control (vehicle only). […] Quantitative Assay: A standard curve is constructed by plotting the concentration of compound against the average absorbance calculated at that concentration. A curve is plotted and the concentration at which the curve passes through the 50% the absorbance mark seen in the “0” control well is the IC50 calculated for that compound. Multiple entries for a given compound indicate that it was tested multiple times.

[2] = test system: human adenocarcinoma cell line CaCo-2; assay: Cell Based Screen for Inhibitors of Raf Kinase, CaCo-2; conditions: four days incubation, SRB
Procedure: as §1, §2, §3, §4, §5

Raf1 (c-Raf) = target: T1, Raf1 (c-Raf) (Homo sapiens, UniProt P04049); assay: Raf1 Kinase Cascade Assay; assay type: biochemical
T1 construct: Sf9 insect cell lysate containing full length 6 his-tagged recombinant human c—Raf; 6His; host or cells: Sf9 insect cells (c-Raf, used as lysate); E. coli (GST-MEK1, GST-MAPK)
Procedure: Raf1 Kinase Cascade Assay Procedure
(Specific Activity: ˜200 U/ml). Human Non-active Mek-1—GST and human GST-MAP kinase (recombinant proteins produced in E. coli).
Stock Solutions Raf Assay:
Assay Dilution Buffer (ADB): 2 OmM MOPS, pH 7.2, 25 mM B-glycerol phosphate, mM EGTA, 1 mM sodium orthovanadate, 1 mM dithiothreitol. Magnesium/ATP Cocktail: 500 AM cold ATP and 75 mM magnesium chloride in ADB.
Active Kinase: Human Active c—Raf: Use at 0.4 U per assay point. Non-active GST-MEK1: Use at 0.1, ug per assay point. Non-active GST-p42 MAP Kinase: Use at 1.0 tg per assay point.
TBST—Tris (50 mM, pH 7.5)-1H-, NaCl (150 mM), Tween-20 (0.05%) Superblock (Pierce) Anti—GST Ab (Pharmacia) Anti-Phospho MAPK (Sigma) Anti-Mouse Ab/Europium conjugate (Wallac)
Assay Procedure: First Stage: c—Raf Dependent Activation of GST-MEK and GST-MAPK Add […] of ADB per assay (i.e. per well of a 96 well plate) Add 10 ml of 0.5 mM cold ATP and 75 mM magnesium chloride in ADB. Add 2 ml of c—Raf (0.4 U/assay), in conjunction with 1.6 ml non-active MEKI (0.4 mg/assay). Add 4 ml of non-active GST-p42 MAP Kinase (1.0 mg/assay). Incubate for 60 minutes at 30° C. in a shaking incubator. Transfer this mixture to an anti—GST Ab coated 96 well plate (Nunc Immunosorb plates coated o/n with a—GST, then blocked with Pierce Superblock). Incubate for 60 minutes at 30° C. in a shaking incubator Wash 3×with TBST, add Anti-Phospho MAPK (Sigma) (1:3000)-1H-Incubate for 60 minutes at 30° C. in a shaking incubator Wash 3×with TBST, add Anti-Mouse Ab/Europium conjugate (Wallac) (1:500)-1H-Incubate for 60 minutes at 30° C. in a shaking incubator Wash 3×with TBST, Read plates in Wallac Victor model Plate Reader. Collect data analyze in Excel for single point and IC50 determinations.
IC50 determinations - done on compounds from single point assays with >80% inhibition. Typically Raf-1 assay is run at compound concentrations from 10 μM to 30 nM in half log dilutions. (% inhibition is determined for each compound concentration).

Compound	IC50 [1]	IC50 [2]	IC50 (Raf1 (c-Raf))	IC50 ([1]; Homo sapiens, LoVo, 96 h)	melting point	IC50 ([2]; Homo sapiens, Caco-2, 96 h)
4-({3-Chloro-4-[(1-methyl-1H-imidazol-2-yl) sulfanyl]phenyl }amino)-7-[5-(1-pyridinyl]-3-quinolinecarbonitrile [Example 180]	5.6 nM	930 nM	3.7 nM			
4-{3-Chloro-4-[(1-methyl-1H-imidazol-2-yl) sulfanyl]anilino }-7-{5-[(4-ethyl-1-piperazinyl) methyl]-2-furyl }-3-quinolinecarbonitrile [Example 156]	5.6 nM	1000 nM	9 nM and 12 nM			
Cn1ccnc1Sc1ccc(Nc2c(C#N)cnc3cc(-c4csc(CN5CCOCC5)c4)ccc23)cc1Cl [Example 33, 4-{3-chloro-4-[(1-methyl-1H-imidazol-2-yl)sulfanyl]anilino}-7-[5-(4-morpholinylmethyl)-3-thienyl]-3-quinolinecarbonitrile]			6 nM	6 nM	110 to 113 °C	
Cn1ccnc1Sc1ccc(Nc2c(C#N)cnc3cc(-c4ccc(CN5CCNCC5)cc4)ccc23)cc1Cl [Example 97, 4-({3-chloro-4-[(1-methylimidazol-2-yl)sulfanyl]phenyl}amino)-7-[4-(1-piperazinylmethyl)phenyl]-3-quinolinecarbonitrile]			16 nM	33 nM	140 to 142 °C	> 1000 nM
Cn1ccnc1Sc1ccc(Nc2c(C#N)cnc3cc(-c4ccc(CN5CCCCC5)cc4)ccc23)cc1Cl [Example 136, 4-{3-Chloro-4-[(1-methyl-IH-imidazol-2-yl)sulfanyl]anilino}-7-[4-(1-piperidinylmethyl)phenyl]-3-quinolinecarbonitrile]			2.5 nM and 1.8 nM	11 nM	158 to 160 °C	> 1000 nM
Cn1ccnc1Sc1ccc(Nc2c(C#N)cnc3cc(-c4ccc(CN5CCOCC5)cc4)ccc23)cc1Cl [Example 138, 4-({3-Chloro-4-[(1-methyl-lH-imidazol-2-yl)sulfanyl]phenyl}amino)-7-{4-[(4-morpholinyl)methyl]phenyl}-3-quinolinecarbonitrile]	6.2 nM	810 nM	5.6 nM			
Cn1ccnc1Sc1ccc(Nc2c(C#N)cnc3cc(-c4ccc(CN5CCCCC5)o4)ccc23)cc1Cl [Example 155, 4-{3-Chloro-4-[(1-methyl-1H-imidazol-2-yl)sulfanyl]anilino}-7-[5-(1-piperidinylmethyl)-2-furyl]-3-quinolinecarbonitrile]			20 nM		214 to 215 °C	
Cn1ccnc1Sc1ccc(Nc2c(C#N)cnc3cc(-c4ccc(CN5CCOCC5)cn4)ccc23)cc1Cl [Example 187, 4-{3-Chloro-4-[(1-methyl-1H-inidazol-2-yl)sulfanyl]anilino}-7-[5-(4-morpholinylmethyl)-2-pyridinyl]-3-quinolinecarbonitrile]	9 nM				225 to 227 °C	
Cn1ccnc1Sc1ccc(Nc2c(C#N)cnc3cc(-c4cnc(N5CCOCC5)nc4)ccc23)cc1Cl [Example 191, 4-{3-Chloro-4-[(1-methyl-1H-imidazol-2-yl)sulfanyl]anilino}-7-[2-(4-morpholinyl)-5-pyrimidinyl]-3-quinolinecarbonitrile]			1 nM	30 nM	> 250 °C	> 10000 nM
Cn1ccnc1Sc1ccc(Nc2c(C#N)cnc3cc(-c4ccc(N5CCCCC5)nc4)ccc23)cc1Cl [Example 211, 4-({3-Chloro-4-[(1-methyl-iH-imidazol-2-yl)sulfanyl]phenyl}amino)-7-[6-(1-piperidinyl)-3-pyridinyl]-3-quinolinecarbonitrile]	5.3 nM	> 1000 nM	6 nM			
N#Cc1cnc2cc(-c3csc(CN4CCCCC4)c3)ccc2c1Nc1ccc(Sc2ccccc2)c(Cl)c1 [Example 462, 4-{[3-chloro-4-(phenylsulfanyl)phenyl]amino}-7-[5-(1-piperidinylmethyl)-3-thienyl]-3-quinolinecarbonitrile]			50 nM			
